Experimental data taken from patent publication US10167262B2, “Herbicidal substituted 3-arylpyrazoles” (FMC CORPORATION, priority 2014, dated 2019).

The molecules below were run on waterhemp_RES2, (ALS & HPPD resistant common waterhemp, Amaranthus rudis) (assay: Test E postemergence greenhouse test, plant response rating 0-100). Conditions: 31 g ai/ha, scale 0 to 100.
Format: in vivo
Experimental: At the same time, plants from these crop and weed species and also waterhemp_RES1, (ALS & Triazine resistant common waterhemp, Amaranthus rudis), and waterhemp_RES2, (ALS & HPPD resistant common waterhemp, Amaranthus rudis) were planted in pots containing Redi-Earth® planting medium (Scotts Company, 14111 Scottslawn Road, Marysville, Ohio 43041) comprising spaghnum peat moss, vermiculite, wetting agent and starter nutrients were treated with postemergence applications of test chemicals formulated in the same manner. Plants ranged in height from 2 to 18 cm for postemergence treatments (1- to 4-leaf stage).
Treated plants and controls were maintained in a greenhouse for 14 to 21 days, after which time all species were compared to controls and visually evaluated. Plant response ratings, summarized in Table E, are based on a scale of 0 to 100 where 0 is no effect and 100 is complete control. A dash (-) response means no test result.
For `ON=C(c1ccccc1)c1c[nH]nc1-c1cc(Cl)cc(Cl)c1` [Compound 50], the “Plant response rating, Waterhemp_RES2” value was 75.

Same assay, conditions: 125 g ai/ha, scale 0 to 100
`ON=C(c1ccccc1)c1c[nH]nc1-c1cc(Cl)cc(Cl)c1` [Compound 50] was tested, and the “Plant response rating, Waterhemp_RES2” value was 100.

Same assay, conditions: 250 g ai/ha, scale 0 to 100
`ON=C(c1ccccc1)c1c[nH]nc1-c1cc(Cl)cc(Cl)c1` [Compound 50] was tested, and the “Plant response rating, Waterhemp_RES2” value was 100.

Same assay, conditions: 500 g ai/ha, scale 0 to 100
For `ON=C(c1ccccc1)c1c[nH]nc1-c1cc(Cl)cc(Cl)c1` [Compound 50], the “Plant response rating, Waterhemp_RES2” value was 100.

Each molecule was assayed on cocklebur (common cocklebur, Xanthium strumarium) (assay: Test C postemergence greenhouse test, plant response rating 0-100). Conditions: 31 g ai/ha.
Format: in vivo
Summary of the method: (§1)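 Scores run from 0, meaning no effect, to 100, meaning complete control, and come from visual comparison with untreated controls. Treatment was a postemergence application to plants 2–18 cm tall. Assessment followed 13 to 15 days of greenhouse growth.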
For `ON=C(c1ccccc1)c1c[nH]nc1-c1cc(Cl)cc(Cl)c1` [Compound 50], the “Plant response rating (0 to 100), Cocklebur” value was 5.

Same assay, conditions: 62 g ai/ha
In the case of `ON=C(c1ccccc1)c1c[nH]nc1-c1cc(Cl)cc(Cl)c1` [Compound 50], the “Plant response rating (0 to 100), Cocklebur” value is reported as 15.

Same assay, conditions: 125 g ai/ha
For `ON=C(c1ccccc1)c1c[nH]nc1-c1cc(Cl)cc(Cl)c1` [Compound 50], the “Plant response rating (0 to 100), Cocklebur” value was 55.

Same assay, conditions: 250 g ai/ha, scale 0 to 100
In the case of `ON=C(c1ccccc1)c1c[nH]nc1-c1cc(Cl)cc(Cl)c1` [Compound 50], the “Plant response rating, Cocklebur” value is reported as 90.

These molecules were tested on woolly cupgrass (Eriochloa villosa) in the same assay as above. Conditions: 31 g ai/ha.
Format: in vivo
Summary of the method: as §1
`ON=C(c1ccccc1)c1c[nH]nc1-c1cc(Cl)cc(Cl)c1` [Compound 50] was tested, and the “Plant response rating (0 to 100), Cupgrass, Woolly” value was 0.

Same assay, conditions: 62 g ai/ha
In the case of `ON=C(c1ccccc1)c1c[nH]nc1-c1cc(Cl)cc(Cl)c1` [Compound 50], the “Plant response rating (0 to 100), Cupgrass, Woolly” value is reported as 0.

Same assay, conditions: 125 g ai/ha
`ON=C(c1ccccc1)c1c[nH]nc1-c1cc(Cl)cc(Cl)c1` [Compound 50] was tested, and the “Plant response rating (0 to 100), Cupgrass, Woolly” value was 0.

Same assay, conditions: 250 g ai/ha, scale 0 to 100
In the case of `ON=C(c1ccccc1)c1c[nH]nc1-c1cc(Cl)cc(Cl)c1` [Compound 50], the “Plant response rating, Cupgrass, Woolly” value is reported as 0.

These molecules were tested on windgrass (Apera spica-venti) in the same assay as above. Conditions: 62 g ai/ha.
Format: in vivo
Summary of the method: as §1
`ON=C(c1ccccc1)c1c[nH]nc1-c1cc(Cl)cc(Cl)c1` [Compound 50] was tested, and the “Plant response rating (0 to 100), Windgrass” value was 0.

Same assay, conditions: 125 g ai/ha
In the case of `ON=C(c1ccccc1)c1c[nH]nc1-c1cc(Cl)cc(Cl)c1` [Compound 50], the “Plant response rating (0 to 100), Windgrass” value is reported as 0.

Same assay, conditions: 250 g ai/ha, scale 0 to 100
In the case of `ON=C(c1ccccc1)c1c[nH]nc1-c1cc(Cl)cc(Cl)c1` [Compound 50], the “Plant response rating, Windgrass” value is reported as 0.

The molecules below were run on downy bromegrass (Bromus tectorum) in the same assay as above. Conditions: 31 g ai/ha.
Format: in vivo
Summary of the method: as §1
`ON=C(c1ccccc1)c1c[nH]nc1-c1cc(Cl)cc(Cl)c1` [Compound 50] was tested, and the “Plant response rating (0 to 100), Bromegrass, Downy” value was 0.

Same assay, conditions: 62 g ai/ha
`ON=C(c1ccccc1)c1c[nH]nc1-c1cc(Cl)cc(Cl)c1` [Compound 50] was tested, and the “Plant response rating (0 to 100), Bromegrass, Downy” value was 0.

Same assay, conditions: 125 g ai/ha
`ON=C(c1ccccc1)c1c[nH]nc1-c1cc(Cl)cc(Cl)c1` [Compound 50] was tested, and the “Plant response rating (0 to 100), Bromegrass, Downy” value was 0.

Same assay, conditions: 250 g ai/ha, scale 0 to 100
For `ON=C(c1ccccc1)c1c[nH]nc1-c1cc(Cl)cc(Cl)c1` [Compound 50], the “Plant response rating, Bromegrass, Downy” value was 0.

The molecules below were run on green foxtail (Setaria viridis) in the same assay as above. Conditions: 31 g ai/ha.
Format: in vivo
Summary of the method: as §1
For `ON=C(c1ccccc1)c1c[nH]nc1-c1cc(Cl)cc(Cl)c1` [Compound 50], the “Plant response rating (0 to 100), Foxtail, Green” value was 0.

Same assay, conditions: 62 g ai/ha
For `ON=C(c1ccccc1)c1c[nH]nc1-c1cc(Cl)cc(Cl)c1` [Compound 50], the “Plant response rating (0 to 100), Foxtail, Green” value was 0.

Same assay, conditions: 125 g ai/ha
In the case of `ON=C(c1ccccc1)c1c[nH]nc1-c1cc(Cl)cc(Cl)c1` [Compound 50], the “Plant response rating (0 to 100), Foxtail, Green” value is reported as 0.

Same assay, conditions: 250 g ai/ha, scale 0 to 100
For `ON=C(c1ccccc1)c1c[nH]nc1-c1cc(Cl)cc(Cl)c1` [Compound 50], the “Plant response rating, Foxtail, Green” value was 0.

The molecules below were run on canarygrass (Phalaris minor) in the same assay as above. Conditions: 31 g ai/ha.
Format: in vivo
Summary of the method: as §1
`ON=C(c1ccccc1)c1c[nH]nc1-c1cc(Cl)cc(Cl)c1` [Compound 50] was tested, and the “Plant response rating (0 to 100), Canarygrass” value was 0.

Same assay, conditions: 62 g ai/ha
In the case of `ON=C(c1ccccc1)c1c[nH]nc1-c1cc(Cl)cc(Cl)c1` [Compound 50], the “Plant response rating (0 to 100), Canarygrass” value is reported as 0.

Same assay, conditions: 125 g ai/ha
`ON=C(c1ccccc1)c1c[nH]nc1-c1cc(Cl)cc(Cl)c1` [Compound 50] was tested, and the “Plant response rating (0 to 100), Canarygrass” value was 0.

Same assay, conditions: 250 g ai/ha, scale 0 to 100
`ON=C(c1ccccc1)c1c[nH]nc1-c1cc(Cl)cc(Cl)c1` [Compound 50] was tested, and the “Plant response rating, Canarygrass” value was 0.

Each molecule was assayed on deadnettle (henbit deadnettle, Lamium amplexicaule) in the same assay as above. Conditions: 31 g ai/ha.
Format: in vivo
Summary of the method: as §1
With `ON=C(c1ccccc1)c1c[nH]nc1-c1cc(Cl)cc(Cl)c1` [Compound 50] the “Plant response rating (0 to 100), Deadnettle” value was 0.

Same assay, conditions: 62 g ai/ha
With `ON=C(c1ccccc1)c1c[nH]nc1-c1cc(Cl)cc(Cl)c1` [Compound 50] the “Plant response rating (0 to 100), Deadnettle” value was 0.

Same assay, conditions: 125 g ai/ha
With `ON=C(c1ccccc1)c1c[nH]nc1-c1cc(Cl)cc(Cl)c1` [Compound 50] the “Plant response rating (0 to 100), Deadnettle” value was 0.

Same assay, conditions: 250 g ai/ha, scale 0 to 100
With `ON=C(c1ccccc1)c1c[nH]nc1-c1cc(Cl)cc(Cl)c1` [Compound 50] the “Plant response rating, Deadnettle” value was 40.

These molecules were tested on winter barley (Hordeum vulgare) in the same assay as above. Conditions: 31 g ai/ha.
Format: in vivo
Summary of the method: as §1
`ON=C(c1ccccc1)c1c[nH]nc1-c1cc(Cl)cc(Cl)c1` [Compound 50] was tested, and the “Plant response rating (0 to 100), Barley” value was 0.

Same assay, conditions: 62 g ai/ha
In the case of `ON=C(c1ccccc1)c1c[nH]nc1-c1cc(Cl)cc(Cl)c1` [Compound 50], the “Plant response rating (0 to 100), Barley” value is reported as 0.

Same assay, conditions: 125 g ai/ha
With `ON=C(c1ccccc1)c1c[nH]nc1-c1cc(Cl)cc(Cl)c1` [Compound 50] the “Plant response rating (0 to 100), Barley” value was 0.

Same assay, conditions: 250 g ai/ha, scale 0 to 100
`ON=C(c1ccccc1)c1c[nH]nc1-c1cc(Cl)cc(Cl)c1` [Compound 50] was tested, and the “Plant response rating, Barley” value was 0.

The molecules below were run on surinam grass (Brachiaria decumbens) in the same assay as above. Conditions: 62 g ai/ha.
Format: in vivo
Summary of the method: as §1
`ON=C(c1ccccc1)c1c[nH]nc1-c1cc(Cl)cc(Cl)c1` [Compound 50] was tested, and the “Plant response rating (0 to 100), Surinam Grass” value was 0.

Same assay, conditions: 125 g ai/ha
For `ON=C(c1ccccc1)c1c[nH]nc1-c1cc(Cl)cc(Cl)c1` [Compound 50], the “Plant response rating (0 to 100), Surinam Grass” value was 0.

Same assay, conditions: 250 g ai/ha, scale 0 to 100
For `ON=C(c1ccccc1)c1c[nH]nc1-c1cc(Cl)cc(Cl)c1` [Compound 50], the “Plant response rating, Surinam Grass” value was 0.
